The source of these data is the supplement of paper PMC10307832.

Compound in the experiment “Idelalisib + Pemetrexed”: CC[C@H](Nc1ncnc2[nH]cnc12)c1nc2cccc(F)c2c(=O)n1-c1ccccc1 [Idelalisib] + Nc1nc2[nH]cc(CCc3ccc(C(=O)N[C@@H](CCC(=O)O)C(=O)O)cc3)c2c(=O)[nH]1 [Pemetrexed] (partner 0.2 µM)
Nature of the experiment: relative viability (nuclei count vs DMSO), 5 days (fraction); higher = more cells survive. In outline:
(§1)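 Medians of duplicate plates are given as relative viability. That measure is the nuclei count in treated wells divided by the count in vehicle wells. Counts were taken on 4× images of lung cancer cell lines in 1536-well plates, 5 days after pin-tool dosing the day after seeding with one drug alone or a fixed anchor-drug dose plus five library-drug doses (not always all listed) in √10 steps.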

Compound in the experiment “Idelalisib + Olaparib”: CC[C@H](Nc1ncnc2[nH]cnc12)c1nc2cccc(F)c2c(=O)n1-c1ccccc1 [Idelalisib] + O=C(c1cc(Cc2n[nH]c(=O)c3ccccc23)ccc1F)N1CCN(C(=O)C2CC2)CC1 [Olaparib] (partner 8 µM)
The description is as above. In outline:
as §1

Take PC-3 [JPC-3]: the relative viability with Idelalisib + Pemetrexed (first compound 0.04 µM) was 1.4; with Idelalisib + Pemetrexed (first compound 0.1265 µM), 1.16; with Idelalisib + Pemetrexed (first compound 0.4 µM), 1.11; with Idelalisib + Pemetrexed (first compound 1.265 µM), 1.09; in the experiment with Idelalisib + Pemetrexed (first compound 4 µM), 1.08; with Idelalisib + Olaparib (first compound 0.04 µM) it was 1.09. The relative viability with Idelalisib + Olaparib (first compound 0.1265 µM) stood at 1.23; with Idelalisib + Olaparib (first compound 0.4 µM), 1.08; in the experiment with Idelalisib + Olaparib (first compound 1.265 µM) it was 1.13; with Idelalisib + Olaparib (first compound 4 µM) it was 0.953.

As for NCI-H1355, the relative viability with Idelalisib + Pemetrexed (first compound 0.04 µM) turned out to be 1.03; with Idelalisib + Pemetrexed (first compound 0.1265 µM) it was 1.04; in the experiment with Idelalisib + Pemetrexed (first compound 0.4 µM), 0.926; with Idelalisib + Pemetrexed (first compound 1.265 µM), 1.09; with Idelalisib + Pemetrexed (first compound 4 µM) it was 1.01; in the experiment with Idelalisib + Olaparib (first compound 0.04 µM), 0.78. The relative viability with Idelalisib + Olaparib (first compound 0.1265 µM) amounted to 0.694; in the experiment with Idelalisib + Olaparib (first compound 0.4 µM) it was 0.632; with Idelalisib + Olaparib (first compound 1.265 µM), 0.776; with Idelalisib + Olaparib (first compound 4 µM) it was 0.673.

For NCI-H727, the relative viability stood at 0.813 in the experiment with Idelalisib + Olaparib (first compound 0.04 µM); 0.624 with Idelalisib + Olaparib (first compound 0.1265 µM); 0.688 with Idelalisib + Olaparib (first compound 0.4 µM); 0.779 in the experiment with Idelalisib + Olaparib (first compound 1.265 µM); 0.836 in the experiment with Idelalisib + Olaparib (first compound 4 µM).

As to IA-LM, the relative viability with Idelalisib + Olaparib (first compound 0.04 µM) amounted to 0.711; with Idelalisib + Olaparib (first compound 0.1265 µM) it was 0.952; with Idelalisib + Olaparib (first compound 0.4 µM), 0.747; in the experiment with Idelalisib + Olaparib (first compound 1.265 µM), 1.02; with Idelalisib + Olaparib (first compound 4 µM), 0.93.

Consider NCI-H1975, for which the relative viability in the experiment with Idelalisib + Pemetrexed (first compound 0.04 µM) worked out at 0.292; in the experiment with Idelalisib + Pemetrexed (first compound 0.1265 µM), 0.334; with Idelalisib + Pemetrexed (first compound 0.4 µM) it was 0.29; with Idelalisib + Pemetrexed (first compound 1.265 µM), 0.276; with Idelalisib + Pemetrexed (first compound 4 µM), 0.303; in the experiment with Idelalisib + Olaparib (first compound 0.04 µM), 0.787. Moreover, the relative viability with Idelalisib + Olaparib (first compound 0.1265 µM) was 0.835; in the experiment with Idelalisib + Olaparib (first compound 0.4 µM), 0.741; in the experiment with Idelalisib + Olaparib (first compound 1.265 µM), 0.778; with Idelalisib + Olaparib (first compound 4 µM) it was 0.615.

As to NCI-H460, the relative viability worked out at 0.0676 in the experiment with Idelalisib + Pemetrexed (first compound 0.04 µM); 0.0589 with Idelalisib + Pemetrexed (first compound 0.1265 µM); 0.0612 with Idelalisib + Pemetrexed (first compound 0.4 µM); 0.0657 in the experiment with Idelalisib + Pemetrexed (first compound 1.265 µM); 0.0587 with Idelalisib + Pemetrexed (first compound 4 µM); 0.491 with Idelalisib + Olaparib (first compound 0.04 µM). Moreover, the relative viability in the experiment with Idelalisib + Olaparib (first compound 0.1265 µM) was 0.466; with Idelalisib + Olaparib (first compound 0.4 µM), 0.461; with Idelalisib + Olaparib (first compound 1.265 µM), 0.454; in the experiment with Idelalisib + Olaparib (first compound 4 µM), 0.472.

In the case of EPLC-272H, the relative viability worked out at 0.303 in the experiment with Idelalisib + Pemetrexed (first compound 0.04 µM); 0.386 in the experiment with Idelalisib + Pemetrexed (first compound 0.1265 µM); 0.317 in the experiment with Idelalisib + Pemetrexed (first compound 0.4 µM); 0.23 with Idelalisib + Pemetrexed (first compound 1.265 µM); 0.347 with Idelalisib + Pemetrexed (first compound 4 µM); 1.01 with Idelalisib + Olaparib (first compound 0.04 µM). Also, the relative viability was determined as 0.916 with Idelalisib + Olaparib (first compound 0.1265 µM), 0.686 in the experiment with Idelalisib + Olaparib (first compound 0.4 µM), 0.637 with Idelalisib + Olaparib (first compound 1.265 µM) and 0.619 with Idelalisib + Olaparib (first compound 4 µM).

Take SW 900: the relative viability with Idelalisib + Pemetrexed (first compound 0.04 µM) stood at 0.493; with Idelalisib + Pemetrexed (first compound 0.1265 µM) it was 0.488; with Idelalisib + Pemetrexed (first compound 0.4 µM), 0.476; with Idelalisib + Pemetrexed (first compound 1.265 µM), 0.509; with Idelalisib + Pemetrexed (first compound 4 µM), 0.406; in the experiment with Idelalisib + Olaparib (first compound 0.04 µM) it was 0.904. In addition, the relative viability was 0.842 in the experiment with Idelalisib + Olaparib (first compound 0.1265 µM), 0.729 with Idelalisib + Olaparib (first compound 0.4 µM), 0.93 in the experiment with Idelalisib + Olaparib (first compound 1.265 µM) and 0.665 with Idelalisib + Olaparib (first compound 4 µM).

For NCI-H1648, the relative viability with Idelalisib + Pemetrexed (first compound 0.04 µM) was determined as 0.711; with Idelalisib + Pemetrexed (first compound 0.1265 µM) it was 0.76; in the experiment with Idelalisib + Pemetrexed (first compound 0.4 µM), 0.806; with Idelalisib + Pemetrexed (first compound 1.265 µM) it was 0.749; in the experiment with Idelalisib + Pemetrexed (first compound 4 µM), 0.53; in the experiment with Idelalisib + Olaparib (first compound 0.1265 µM), 1.16. For the same cell line, the relative viability with Idelalisib + Olaparib (first compound 0.4 µM) worked out at 0.712; in the experiment with Idelalisib + Olaparib (first compound 1.265 µM), 1.11; in the experiment with Idelalisib + Olaparib (first compound 4 µM) it was 0.657.

Consider SK-LU-1, for which the relative viability with Idelalisib + Pemetrexed (first compound 0.04 µM) was determined as 0.86; in the experiment with Idelalisib + Pemetrexed (first compound 0.1265 µM), 1.06; with Idelalisib + Pemetrexed (first compound 0.4 µM), 0.943; with Idelalisib + Pemetrexed (first compound 1.265 µM) it was 0.919; in the experiment with Idelalisib + Pemetrexed (first compound 4 µM), 0.967; with Idelalisib + Olaparib (first compound 0.04 µM), 0.584. In addition, the relative viability in the experiment with Idelalisib + Olaparib (first compound 0.1265 µM) came to 0.492; in the experiment with Idelalisib + Olaparib (first compound 0.4 µM), 0.41; with Idelalisib + Olaparib (first compound 1.265 µM), 0.424; in the experiment with Idelalisib + Olaparib (first compound 4 µM), 0.464.
